In ChEMBL document CHEMBL2040781, “Design, synthesis, and biological evaluation of chromone-based p38 MAP kinase inhibitors” (J Med Chem, 2011):

Biological target: Mitogen-activated protein kinase 14 (Homo sapiens, UniProt Q16539)
Assay: Inhibition of p38alpha MAPK after 40 mins by scintillation counting

Mitogen-activated protein kinase 14, sequence (Q16539 whole entry): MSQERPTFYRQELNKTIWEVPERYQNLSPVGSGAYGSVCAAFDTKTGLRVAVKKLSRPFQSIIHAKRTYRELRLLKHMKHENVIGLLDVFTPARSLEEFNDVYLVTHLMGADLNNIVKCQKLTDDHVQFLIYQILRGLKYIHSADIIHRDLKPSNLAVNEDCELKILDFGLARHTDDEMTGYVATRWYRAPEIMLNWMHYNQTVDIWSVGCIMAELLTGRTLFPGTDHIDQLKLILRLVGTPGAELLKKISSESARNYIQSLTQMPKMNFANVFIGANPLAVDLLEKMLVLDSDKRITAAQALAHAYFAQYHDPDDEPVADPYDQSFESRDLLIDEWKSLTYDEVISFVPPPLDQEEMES

IC50 [nM] | SMILES
35 | O=c1c(-c2ccc(F)cc2)c(-c2ccnc(NCc3ccccc3)c2)oc2ccccc12
761 | CN(C)CCCNc1cc(-c2oc3ccccc3c(=O)c2-c2ccc(F)cc2)ccn1
45 | O=c1c(-c2ccc(F)cc2)c(-c2ccnc(NC3CCOCC3)c2)oc2ccccc12
1380 | O=c1c(-c2ccc(F)cc2)c(-c2ccnc(Cl)c2)oc2ccccc12
21 | CCCCNc1cc(-c2oc3ccccc3c(=O)c2-c2ccc(F)cc2)ccn1
39 | COCCCNc1cc(-c2oc3ccccc3c(=O)c2-c2ccc(F)cc2)ccn1
813 | O=c1c(-c2ccc(F)cc2)c(-c2ccncc2)oc2ccccc12
